ChEMBL document CHEMBL1140285, “Synthesis and ocular effects of imidazole nitrolic acids” (2005)
The source made the active and inactive calls. The rule behind the calls is not given here.

Tests used:
Oryctolagus cuniculus [1] = assay: Increase in NOx concentration in plasma after intravitreal administration of compound in rabbits; control value is 408.59; type: functional
Sus scrofa [2] = assay: Increase in nitrite concentration in porcineiris-ciliary body after administration of compound at the concentrations of 100 uM; control value is 0.15
Oryctolagus cuniculus [3] = assay: Increase in cGMP concentration in aqueous humor after intravitreal administration of compound in rabbits; control value is 14.31; type: functional, Aqueous humor of eyeball
Oryctolagus cuniculus [4] = assay: Increase in NOx concentration in aqueous humor after intravitreal administration of compound in rabbits; control value is 450.31; type: functional, Aqueous humor of eyeball
Sus scrofa [5] = assay: Increase in cGMP concentration in porcineiris-ciliary body after administration of compound at the concentrations of 100 uM; control value is 0.46
Sus scrofa [6] = assay: Increase in cGMP concentration in porcineiris-ciliary body after administration of compound at the concentrations of 10 uM; control value is 0.46
Oryctolagus cuniculus [7] = assay: Increase in nitrite concentration in plasma after intravitreal administration of compound in rabbits; control value is 0.98; type: functional
Oryctolagus cuniculus [8] = assay: Increase in NOx concentration in porcineiris-ciliary body after administration of compound at the concentrations of 10 uM and 100 uM; control value is 0.36; type: functional
Sus scrofa [9] = assay: Increase in nitrite concentration in porcineiris-ciliary body after administration of compound at the concentrations of 10 uM; control value is 0.15
Oryctolagus cuniculus [10] = assay: Increase in nitrite concentration in aqueous humor after intravitreal administration of compound in rabbits; control value is 2.40; type: functional, Aqueous humor of eyeball
Oryctolagus cuniculus [11] = assay: Maximal decrease in IOP observed with in 24 hours after intravitreal administration of the compound at the concentration of 20 mM; type: functional
Oryctolagus cuniculus [12] = assay: Increase in nitrite concentration in porcineiris-ciliary body after administration of compound at the concentrations of 10 uM and 100 uM; control value is 0.15; NE is no effect on IOP; type: functional
Oryctolagus cuniculus [13] = assay: Maximal decrease in IOP observed with in 24 hours after intravitreal administration of the compound; NE is no effect on IOP; type: functional, organism-based
Oryctolagus cuniculus [14] = assay: Increase in NOx concentration in porcineiris-ciliary body after administration of compound at the concentrations of 10 uM and 100 uM; control value is 0.36; NE is no effect on IOP; type: functional
Oryctolagus cuniculus [15] = assay: Increase in nitrite concentration in plasma after topical administration of compound in rabbits; control value is 0.98; type: functional
Oryctolagus cuniculus [16] = assay: Increase in NOx concentration in plasma after topical administration of compound in rabbits; control value is 408.59; type: functional
Oryctolagus cuniculus [17] = assay: Increase in cGMP concentration in aqueous humor after topical administration of compound in rabbits; control value is 16.10; type: functional, Aqueous humor of eyeball
Oryctolagus cuniculus [18] = assay: Increase in NOx concentration in aqueous humor after topical administration of compound in rabbits; control value is 309.09; type: functional, Aqueous humor of eyeball
Sus scrofa [19] = assay: Increase in NOx concentration in porcineiris-ciliary body after administration of compound at the concentrations of 100 uM; control value is 0.36
Sus scrofa [20] = assay: Increase in NOx concentration in porcineiris-ciliary body after administration of compound at the concentrations of 10 uM; control value is 0.36
Oryctolagus cuniculus [21] = assay: Increase in nitrite concentration in aqueous humor after topical administration of compound in rabbits; control value is 1.31; type: functional, Aqueous humor of eyeball
Oryctolagus cuniculus [22] = assay: Maximal decrease in IOP observed with in 24 hours after intravitreal administration of the compound; NE is no effect; type: functional, organism-based
Oryctolagus cuniculus [23] = assay: Increase in NOx concentration in porcineiris-ciliary body after administration of compound at the concentrations of 10 uM and 100 uM; NE is no effect; type: functional
Oryctolagus cuniculus [24] = assay: Maximal decrease in IOP observed with in 24 hours after intravitreal administration of the compound;NE is no effect on IOP; type: functional, organism-based
Oryctolagus cuniculus [25] = assay: Increase in NOx concentration in aqueous humor after intravitreal administration of compound in rabbits; control value is 500.86; type: functional, Aqueous humor of eyeball
Oryctolagus cuniculus [26] = assay: Increase in nitrite concentration in aqueous humor after intravitreal administration of compound in rabbits; control value is 1.32; type: functional, Aqueous humor of eyeball
Oryctolagus cuniculus [27] = assay: Increase in cGMP concentration in aqueous humor after intravitreal administration of compound in rabbits; control value is 9.17; type: functional, Aqueous humor of eyeball
Oryctolagus cuniculus [28] = assay: Maximal decrease in IOP observed with […] after intravitreal administration of the compound at the concentration of 20 mM; type: functional

SMILES | Increase in concentration (Sus scrofa [2]) | cGMP concentration (Sus scrofa [5]) | cGMP concentration (Sus scrofa [6]) | Increase in concentration (Sus scrofa [9]) | Maximal decrease in IOP (Oryctolagus cuniculus [13]) | Increase in concentration (Sus scrofa [19]) | Increase in concentration (Sus scrofa [20]) | also measured
O=[N+]([O-])/C(=N\O)c1c[nH]cn1 | 0.18 µM | 0.55 pmol/mg prot. | 0.51 pmol/mg prot. | 0.18 µM | – | – | – | Increase in concentration (Oryctolagus cuniculus [1]): 469.42 µM; Increase in concentration (Oryctolagus cuniculus [3]): 21.77 pmol/mg prot.; Increase in concentration (Oryctolagus cuniculus [4]): 451.94 µM; Increase in concentration (Oryctolagus cuniculus [7]): 1.38 µM; Increase in concentration (Oryctolagus cuniculus [8]): No effect; Increase in concentration (Oryctolagus cuniculus [10]): 2.49 µM; Maximal decrease in IOP (Oryctolagus cuniculus [11]): -7.3 mmHg
Cn1cncc1/C=N/O | – | 0.58 pmol/mg prot. | 0.51 pmol/mg prot. | – | No effect | – | – | Increase in concentration (Oryctolagus cuniculus [12]): No effect; Increase in concentration (Oryctolagus cuniculus [14]): No effect
O=[N+]([O-])/C(=N\O)c1cncn1Cc1ccccc1 | 24.44 µM | 3.29 pmol/mg prot. | 0.46 pmol/mg prot. | 2.15 µM | No effect | 24.6 µM | 2.01 µM | Increase in concentration (Oryctolagus cuniculus [15]): 0.87 µM; Increase in concentration (Oryctolagus cuniculus [16]): 379.43 µM; Increase in concentration (Oryctolagus cuniculus [17]): 16.79 pmol/mg prot.; Increase in concentration (Oryctolagus cuniculus [18]): 302.19 µM; Increase in concentration (Oryctolagus cuniculus [21]): 1.61 µM
O/N=C/c1cncn1Cc1ccccc1 [listing 1 of 2 here] | – | – | – | – | No effect | – | – | Increase in concentration (Oryctolagus cuniculus [12]): No effect; Increase in concentration (Oryctolagus cuniculus [14]): No effect
Cl.O/N=C/c1cncn1Cc1ccccc1 | – | 0.58 pmol/mg prot. | 0.58 pmol/mg prot. | – | – | 2.21 µM | 1.97 µM | –
O=[N+]([O-])/C(=N\O)c1ncc[nH]1 | – | – | – | – | – | – | – | Maximal decrease in IOP (Oryctolagus cuniculus [22]): inactive; Increase in concentration (Oryctolagus cuniculus [23]): inactive
Cn1cncc1C=O | 0.62 µM | 0.5 pmol/mg prot. | 0.38 pmol/mg prot. | 0.34 µM | No effect | 0.09 µM | 0.63 µM | –
Cc1[nH]cnc1/C(=N/O)[N+](=O)[O-] | 31.22 µM | 1.22 pmol/mg prot. | 0.6 pmol/mg prot. | 3.62 µM | – | 30.62 µM | 3.06 µM | Maximal decrease in IOP (Oryctolagus cuniculus [24]): No effect
O=[N+]([O-])/C(=N\O)c1c[nH]c(-c2ccccc2)n1 | – | – | – | – | No effect | – | – | –
O=Cc1cncn1Cc1ccccc1 | – | 0.38 pmol/mg prot. | 0.3 pmol/mg prot. | – | No effect | – | – | Increase in concentration (Oryctolagus cuniculus [12]): No effect; Increase in concentration (Oryctolagus cuniculus [14]): No effect
Cn1cncc1/C(=N/O)[N+](=O)[O-] [listing 1 of 2 here] | 32.07 µM | 1.19 pmol/mg prot. | 0.87 pmol/mg prot. | 3.46 µM | – | 29.96 µM | 3.38 µM | –
Cn1cncc1/C(=N/O)[N+](=O)[O-] [listing 2 of 2 here] | – | – | – | – | No effect | – | – | –
O/N=C/c1cncn1Cc1ccccc1 [listing 2 of 2 here] | – | – | 0.3 pmol/mg prot. | – | – | – | – | –
Cn1cncc1/C(=N/O)[N+](=O)[O-].O=[N+]([O-])O | 28.05 µM | 2.76 pmol/mg prot. | 1.01 pmol/mg prot. | 2.68 µM | – | 51.95 µM | 4.87 µM | Increase in concentration (Oryctolagus cuniculus [25]): 524.29 µM; Increase in concentration (Oryctolagus cuniculus [26]): 10.32 µM; Increase in concentration (Oryctolagus cuniculus [1]): 425.49 µM; Increase in concentration (Oryctolagus cuniculus [27]): 9.41 pmol/mg prot.; Maximal decrease in IOP (Oryctolagus cuniculus [28]): -4 mmHg; Increase in concentration (Oryctolagus cuniculus [7]): 0.75 µM
